For one data set, the target named is T1, human GPR40 (Homo sapiens, UniProt O14842).
T1 construct: host or cells: CHO-K1
The data set can be described thus: Inositol phosphate accumulation assay (IP1 HTRF) in CHO-K1 cells expressing human GPR40. Conditions: 90 min. Type of data set: cell-based. As for the experimental part:
CHO-K1 cells expressing human GPR40 were purchased from DiscoverX (95-1005C2). HEK293 cells expressing mouse FFAR1 were prepared using a mouse FFAR1 carrying plasmid purchased from OriGene Technologies (MR222997). The cells were transfected using Lipofectamine 2000 using manufacturer instructions and stable cell line was established from a single cell using geneticine selection. Assay ready frozen (ARF) cells were prepared and used throughout the study.
The assay was performed in a 384-well plate format using IP1 assay kit from Cis-Bio. ARF cells expressing FFAR1 (mouse and human) were thawed, washed and then plated in the appropriate medium (F12 based medium for CHO hFFAR1 and DMEM based medium for HEK293 mFFAR1-both were supplemented with 10% FBS and penicillin/streptomycin). 20 μL of 3.5×10^5 cells/mL were plated on a Poly D-Lysine coated 384-well white plate. The cells were then incubated for 16 hr at 37° C./5% CO2. After 16 hr the medium was removed and 15 μL of stimulation buffer containing the test compounds was added to the cells. The plates were then incubated for 90 min at 37° C./5% CO2. 5 μL of detection buffer (prepared as described in the IP-one kit) was added to each well and the plates were incubated at RT for 1 hr.
[…] was measured using ClarioSTAR plate reader, calculating the ratio between emissions at 665 nm and 620 nm (HTRF ratio). HTRF ratio for positive (Max) and negative (Min) controls were used to normalize HTRF data and generate values for % activity. EC50 and Max activity values were determined using a standard 4-parameter fit.
For orientation: Time-resolved FRET reads energy transfer from a long-lived donor to a nearby acceptor.

Data set [1] is described as follows: In vivo plasma levels in mice after oral gavage, with unbound exposure from plasma protein binding. Conditions: male C57BL/6J mice, 30 mg/kg oral gavage; for Exposure (nM) (unbound), unbound exposure in plasma: total exposure x free fraction; for concentration at 5 h / concentration at 2 h: mouse, plasma, read-out: Exposure (nM), total exposure in plasma. As for the experimental part:
Male C57BL/6J mice 10-12 weeks old were dosed with test article (30 mg/kg) or vehicle by oral gavage. Animals were euthanized with carbon dioxide at 2 h or 5 h post dose. Blood was collected for measurement of plasma concentrations of test article. Unbound exposure was calculated by multiplying the measured total exposure by the free fraction as assessed from plasma protein binding.
Plasma protein binding to isotonic phosphate buffer (PBS) containing 10% C57 BL/6 mouse plasma was determined using equilibrium dialysis of plasma spiked with test article (2 μM) against a dialysis buffer (100 mM sodium phosphate and 150 mM NaCl). At the end of the dialysis (4 hr), aliquots of the plasma and buffer were processed by protein precipitation for LC-MS/MS analysis to quantitate the test article.
Results for exemplary compounds (total exposure in plasma and unbound exposure in plasma; ratio of EC50 to unbound exposure in plasma) are shown in Table 2.

Where only a bound is given, the exact number is not on record here.

We go through 14 compounds from US20230151037A1, “GPR40 AGONISTS” (Kallyope, Inc., priority 2020, published 2023).

One may read the EC50 as the concentration giving half of the maximal effect.

T1 sequence (O14842 whole entry): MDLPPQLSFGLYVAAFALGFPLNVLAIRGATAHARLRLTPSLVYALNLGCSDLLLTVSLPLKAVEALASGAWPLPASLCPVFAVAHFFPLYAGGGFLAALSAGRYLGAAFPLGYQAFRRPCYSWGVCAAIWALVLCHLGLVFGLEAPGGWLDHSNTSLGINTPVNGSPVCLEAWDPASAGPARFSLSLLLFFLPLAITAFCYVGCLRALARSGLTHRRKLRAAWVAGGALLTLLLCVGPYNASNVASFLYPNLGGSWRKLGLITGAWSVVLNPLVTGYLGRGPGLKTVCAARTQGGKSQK

The compound `COc1ccc(F)c(-c2ccc(COc3cccc([C@@H](CP(C)(=O)O)C4CC4)c3)cc2[C@@H](OC)C(C)(C)C)c1` [Compound 24, ((S)-2-cyclopropyl-2-(3-((2′-fluoro-5′-methoxy-2-((S)-1-methoxy-2,2-dimethylpropyl)-[1,1′-biphenyl]-4-yl)methoxy)phenyl)ethyl)(methyl)phosphinic acid] had an EC50 at human GPR40 not above 50 nM. Moreover, in data set [1] (5 h post-dose), the “Exposure (nM) (unbound), unbound exposure in plasma” value (“Exposure (nM) (unbound)” below) stood at 0.03 nM and the concentration at 5 h was 145 nM.

At human GPR40, `COc1cc(-c2ccc(COc3cccc(C(CP(C)(=O)O)C4CC4)c3)cc2CN(C(C)C)C(C)C)c(F)cn1` (single isomer, unassigned) [Compound 13, (2-cyclopropyl-2-(3-((3-((diisopropylamino)methyl)-4-(5-fluoro-2-methoxypyridin-4-yl)benzyl)oxy)phenyl)ethyl)(methyl)phosphinic acid] gave an EC50 of 50 to 250 nM. In data set [1] (2 h post-dose), the “Exposure (nM) (unbound)” value came out at 1.2 nM and the concentration at 2 h came out at 294 nM.

On to `COc1cccc(-c2ccc(COc3cccc([C@@H](CP(C)(=O)O)C4CC4)c3)cc2[C@@H](OC)C(C)(C)C)c1` [Compound 29, ((S)-2-cyclopropyl-2-(3-((3′-methoxy-2-((S)-1-methoxy-2,2-dimethylpropyl)-[1,1′-biphenyl]-4-yl)methoxy)phenyl)ethyl)(methyl)phosphinic acid], for which the concentration for a half-maximal effect (EC50) on human GPR40 was not above 50 nM. Besides, in data set [1] (5 h post-dose), the “Exposure (nM) (unbound)” value amounted to 0.06 nM and the concentration at 5 h was 140 nM. `COc1cc(-c2ccc(COc3cccc(C(C)CP(C)(=O)O)c3)cc2CN(C(C)C)C(C)C)c(F)cn1` (single isomer, unassigned) [Compound 36, (2-(3-((3-((diisopropylamino)methyl)-4-(5-fluoro-2-methoxypyridin-4-yl)benzyl)oxy)phenyl)propyl)(methyl)phosphinic acid]: the EC50 on human GPR40 is more than 1000 nM. In the case of `CCP(=O)(O)CC(c1cccc(OCc2ccc(-c3cc(OC)ncc3F)c(CN(C(C)C)C(C)C)c2)c1)C1CC1` (single isomer, unassigned) [Compound 19, (2-cyclopropyl-2-(3-((3-((diisopropylamino)methyl)-4-(5-fluoro-2-methoxypyridin-4-yl)benzyl)oxy)phenyl)ethyl)(ethyl)phosphinic acid], the EC50 at human GPR40 was more than 1000 nM. `CCP(=O)(O)CC(c1cccc(OCc2ccc(-c3cc(OC)ncc3F)c(CN(C(C)C)C(C)C)c2)c1)C1CC1` (single isomer, unassigned) [Compound 18, (2-cyclopropyl-2-(3-((3-((diisopropylamino)methyl)-4-(5-fluoro-2-methoxypyridin-4-yl)benzyl)oxy)phenyl)ethyl)(ethyl)phosphinic acid] yielded a concentration for a half-maximal effect (EC50) at human GPR40 of more than 1000 nM. On human GPR40, `COc1cc(-c2ccc(COc3cccc([C@@H](CP(C)(=O)O)C4CC4)c3)cc2[C@@H](OC)C(C)(C)C)c(F)cn1` [Compound 25, ((S)-2-cyclopropyl-2-(3-((4-(5-fluoro-2-methoxypyridin-4-yl)-3-((S)-1-methoxy-2,2-dimethylpropyl)benzyl)oxy)phenyl)ethyl)(methyl)phosphinic acid] yielded an EC50 not above 50 nM. Also, in data set [1] (2 h post-dose), the “Exposure (nM) (unbound)” value is given as 1.1 nM and the concentration at 2 h is 1840 nM. `COc1cc(-c2ccc(COc3cccc(C(CS(=O)(=O)O)C4CC4)c3)cc2CN(C(C)C)C(C)C)c(F)cn1` (stereo not shown) [Compound 1, 2-cyclopropyl-2-(3-((3-((diisopropylamino)methyl)-4-(5-fluoro-2-methoxypyridin-4-yl)benzyl)oxy)phenyl)ethanesulfonic acid]: on human GPR40, the EC50 is more than 1000 nM. On human GPR40, `COc1cc(-c2ccc(COc3cccc(C(CS(=O)(=O)O)C4CC4)c3)cc2CN(C(C)C)C(C)C)c(F)cn1` (single isomer, unassigned) [Compound 14, 2-cyclopropyl-2-(3-((3-((diisopropylamino)methyl)-4-(5-fluoro-2-methoxypyridin-4-yl)benzyl)oxy)phenyl)ethanesulfonic acid] showed an EC50 of more than 1000 nM. On human GPR40, `COc1cc(-c2ccc(COc3cc(C(C)CP(C)(=O)O)ccn3)cc2[C@@H](OC)C(C)(C)C)c(F)cn1` (single isomer, unassigned) [Compound 38] showed an EC50 not above 50 nM. Same read-out and setting: for `COc1cc(-c2ccc(COc3cccc(C(C4CC4)C(C)P(=O)(O)O)c3)cc2CN(C(C)C)C(C)C)c(F)cn1` (stereo not shown) [Compound 6, (1-cyclopropyl-1-(3-((3-((diisopropylamino)methyl)-4-(5-fluoro-2-methoxypyridin-4-yl)benzyl)oxy)phenyl)propan-2-yl)phosphonic acid] the value was more than 1000 nM. The same measure, in the same setting: then `COc1cc(-c2ccc(COc3cccc(C(C4CC4)C(C)P(=O)(O)OC)c3)cc2CN(C(C)C)C(C)C)c(F)cn1` (stereo not shown) [Compound 7, methyl hydrogen (1-cyclopropyl-1-(3-((3-((diisopropylamino)methyl)-4-(5-fluoro-2-methoxypyridin-4-yl)benzyl)oxy)phenyl)propan-2-yl)phosphonate], with more than 1000 nM; and `COc1cccc(-c2ccc(COc3cc([C@@H](CP(C)(=O)O)C4CC4)ccn3)cc2[C@@H](OC)C(C)(C)C)c1` [Compound 30, ((S)-2-cyclopropyl-2-(2-((3′-methoxy-2-((S)-1-methoxy-2,2-dimethylpropyl)-[1,1′-biphenyl]-4-yl)methoxy)pyridin-4-yl)ethyl)(methyl)phosphinic acid], with not above 50 nM. On the same count and under the same terms, then `COc1cc(-c2ccc(COc3cccc(C(CS(=O)(=O)O)C4CC4)c3)cc2CN(C(C)C)C(C)C)c(F)cn1` (single isomer, unassigned) [Compound 15, 2-cyclopropyl-2-(3-((3-((diisopropylamino)methyl)-4-(5-fluoro-2-methoxypyridin-4-yl)benzyl)oxy)phenyl)ethanesulfonic acid], with more than 1000 nM.
